PubChem BioAssay (NCI)
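GI50 = concentration required for 50% inhibition of growth. TGI: total growth inhibition.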

How the values were obtained:
Assay in all cases: NCI-60 cell line screen, 384-well format
786-0 renal = test system: 786-0 renal
A498 renal = test system: A498 renal
A549 NSCLC = test system: A549 NSCLC
ACHN renal = test system: ACHN renal
BT-549 breast = test system: BT-549 breast
CAKI-1 renal = test system: CAKI-1 renal
CCRF-CEM leukemia = test system: CCRF-CEM leukemia
COLO 205 colon = test system: COLO 205 colon
DU-145 prostate = test system: DU-145 prostate
EKVX NSCLC = test system: EKVX NSCLC
HCC-2998 colon = test system: HCC-2998 colon
HCT-116 colon = test system: HCT-116 colon
HCT-15 colon = test system: HCT-15 colon
HL-60(TB) leukemia = test system: HL-60(TB) leukemia
HOP-62 NSCLC = test system: HOP-62 NSCLC
HOP-92 NSCLC = test system: HOP-92 NSCLC
HS 578T breast = test system: HS 578T breast
HT29 colon = test system: HT29 colon
K-562 leukemia = test system: K-562 leukemia
KM12 colon = test system: KM12 colon
LOX IMVI melanoma = test system: LOX IMVI melanoma
M14 melanoma = test system: M14 melanoma
MALME-3M melanoma = test system: MALME-3M melanoma
MDA-MB-231 breast = test system: MDA-MB-231 breast
MDA-MB-435 melanoma = test system: MDA-MB-435 melanoma
MOLT-4 leukemia = test system: MOLT-4 leukemia
NCI-H226 lung = test system: NCI-H226 lung
NCI-H23 lung = test system: NCI-H23 lung
NCI-H322M lung = test system: NCI-H322M lung
NCI-H460 NSCLC = test system: NCI-H460 NSCLC
NCI-H522 lung = test system: NCI-H522 lung
NCI/ADR-RES ovarian = test system: NCI/ADR-RES ovarian
OVCAR-3 ovarian = test system: OVCAR-3 ovarian
OVCAR-4 ovarian = test system: OVCAR-4 ovarian
OVCAR-5 ovarian = test system: OVCAR-5 ovarian
PC-3 prostate = test system: PC-3 prostate
RPMI-8226 leukemia = test system: RPMI-8226 leukemia
RXF 393 renal = test system: RXF 393 renal
SF-268 CNS = test system: SF-268 CNS
SF-295 CNS = test system: SF-295 CNS
SF-539 CNS = test system: SF-539 CNS
SK-MEL-2 melanoma = test system: SK-MEL-2 melanoma
SK-MEL-28 melanoma = test system: SK-MEL-28 melanoma
SK-MEL-5 melanoma = test system: SK-MEL-5 melanoma
SK-OV-3 ovarian = test system: SK-OV-3 ovarian
SN12C renal = test system: SN12C renal
SNB-19 CNS = test system: SNB-19 CNS
SNB-75 CNS = test system: SNB-75 CNS
SR leukemia = test system: SR leukemia
SW-620 colon = test system: SW-620 colon
T-47D breast = test system: T-47D breast
U251 glioblastoma = test system: U251 glioblastoma
UACC-257 melanoma = test system: UACC-257 melanoma
UACC-62 melanoma = test system: UACC-62 melanoma
UO-31 renal = test system: UO-31 renal

SMILES: C[C@@H](NC(=O)/C(C#N)=C/c1ccc([N+](=O)[O-])cc1)c1ccccc1
- GI50 ([…]-0 renal): 1.72 µM
- TGI (786-0 renal): 3.21 µM
- GI50 (A498 renal): 1.91 µM
- TGI (A498 renal): 3.54 µM
- GI50 (A549 NSCLC): 3.04 µM
- TGI (A549 NSCLC): 8.55 µM
- GI50 (ACHN renal): 1.79 µM
- TGI (ACHN renal): 3.25 µM
- GI50 (BT-549 breast): 1.85 µM
- TGI (BT-549 breast): 3.42 µM
- GI50 (CAKI-1 renal): 1.72 µM
- TGI (CAKI-1 renal): 3.32 µM
- GI50 (CCRF-CEM leukemia): 1.64 µM
- TGI (CCRF-CEM leukemia): 3.02 µM
- GI50 (COLO 205 colon): 1.71 µM
- TGI (COLO 205 colon): 3.11 µM
- GI50 (DU-145 prostate): 3.2 µM
- TGI (DU-145 prostate): 9.86 µM
- GI50 (EKVX NSCLC): 1.91 µM
- TGI (EKVX NSCLC): 3.55 µM
- GI50 (HCC-2998 colon): 1.14 µM
- TGI (HCC-2998 colon): 2.42 µM
- GI50 (HCT-116 colon): 2.59 µM
- TGI (HCT-116 colon): 5.95 µM
- GI50 (HCT-15 colon): 1.72 µM
- TGI (HCT-15 colon): 3.24 µM
- GI50 (HL-60(TB) leukemia): 1.78 µM
- TGI (HL-60(TB) leukemia): 3.18 µM
- GI50 (HOP-62 NSCLC): 2.4 µM
- TGI (HOP-62 NSCLC): 5.77 µM
- GI50 (HOP-92 NSCLC): 3.22 µM
- TGI (HOP-92 NSCLC): 12.1 µM
- GI50 (HS 578T breast): 1.85 µM
- TGI (HS 578T breast): 3.41 µM
- GI50 (HT29 colon): 1.82 µM
- TGI (HT29 colon): 3.25 µM
- GI50 (K-562 leukemia): 1.85 µM
- TGI (K-562 leukemia): 4.04 µM
- GI50 (KM12 colon): 1.9 µM
- TGI (KM12 colon): 3.79 µM
- GI50 (LOX IMVI melanoma): 1.93 µM
- TGI (LOX IMVI melanoma): 3.49 µM
- GI50 (M14 melanoma): 2.37 µM
- TGI (M14 melanoma): 5.7 µM
- GI50 (MALME-3M melanoma): 2.29 µM
- TGI (MALME-3M melanoma): 4.6 µM
- GI50 (MDA-MB-231 breast): 3.03 µM
- TGI (MDA-MB-231 breast): 7.47 µM
- GI50 (MDA-MB-435 melanoma): 3.26 µM
- TGI (MDA-MB-435 melanoma): 10.4 µM
- GI50 (MOLT-4 leukemia): 1.5 µM
- TGI (MOLT-4 leukemia): 2.85 µM
- GI50 (NCI-H226 lung): 2.04 µM
- TGI (NCI-H226 lung): 4.28 µM
- GI50 (NCI-H23 lung): 1.83 µM
- TGI (NCI-H23 lung): 3.39 µM
- GI50 (NCI-H322M lung): 1.98 µM
- TGI (NCI-H322M lung): 3.82 µM
- GI50 (NCI-H460 NSCLC): 1.74 µM
- TGI (NCI-H460 NSCLC): 3.24 µM
- GI50 (NCI-H522 lung): 0.271 µM
- TGI (NCI-H522 lung): 0.964 µM
- GI50 (NCI/ADR-RES ovarian): 2.08 µM
- TGI (NCI/ADR-RES ovarian): 4.65 µM
- GI50 (OVCAR-3 ovarian): 1.61 µM
- TGI (OVCAR-3 ovarian): 3.12 µM
- GI50 (OVCAR-4 ovarian): 1.73 µM
- TGI (OVCAR-4 ovarian): 3.3 µM
- GI50 (OVCAR-5 ovarian): 2.57 µM
- TGI (OVCAR-5 ovarian): 6.52 µM
- GI50 (PC-3 prostate): 2 µM
- TGI (PC-3 prostate): 3.93 µM
- GI50 (RPMI-8226 leukemia): 1.7 µM
- TGI (RPMI-8226 leukemia): 3.09 µM
- GI50 (RXF 393 renal): 1.72 µM
- TGI (RXF 393 renal): 3.15 µM
- GI50 (SF-268 CNS): 2.23 µM
- TGI (SF-268 CNS): 5.52 µM
- GI50 (SF-295 CNS): 1.94 µM
- TGI (SF-295 CNS): 3.85 µM
- GI50 (SF-539 CNS): 2.18 µM
- TGI (SF-539 CNS): 4.3 µM
- GI50 (SK-MEL-2 melanoma): 2.02 µM
- TGI (SK-MEL-2 melanoma): 3.57 µM
- GI50 (SK-MEL-28 melanoma): 3.48 µM
- TGI (SK-MEL-28 melanoma): 9.82 µM
- GI50 (SK-MEL-5 melanoma): 2.09 µM
- TGI (SK-MEL-5 melanoma): 3.79 µM
- GI50 (SK-OV-3 ovarian): 2.19 µM
- TGI (SK-OV-3 ovarian): 4.54 µM
- GI50 (SN12C renal): 2.01 µM
- TGI (SN12C renal): 4.19 µM
- GI50 (SNB-19 CNS): 2.33 µM
- TGI (SNB-19 CNS): 5.78 µM
- GI50 (SNB-75 CNS): 1.76 µM
- TGI (SNB-75 CNS): 3.24 µM
- GI50 (SR leukemia): 1.28 µM
- TGI (SR leukemia): 2.58 µM
- GI50 (SW-620 colon): 1.88 µM
- TGI (SW-620 colon): 3.39 µM
- GI50 (T-47D breast): 2.75 µM
- TGI (T-47D breast): 5.85 µM
- GI50 (U251 glioblastoma): 1.74 µM
- TGI (U251 glioblastoma): 3.26 µM
- GI50 (UACC-257 melanoma): 3.39 µM
- TGI (UACC-257 melanoma): 9.81 µM
- GI50 (UACC-62 melanoma): 1.82 µM
- TGI (UACC-62 melanoma): 3.51 µM
- GI50 (UO-31 renal): 1.34 µM
- TGI (UO-31 renal): 2.66 µM
